Entries after “also recorded” stand apart in the source; their conditions may differ. Like-named read-outs stand apart in the source and are kept apart here.
How the values were obtained:
[1] = molecular target: mannose binding protein (MBP) of Acanthamoeba (Acanthamoeba castellanii, UniProt Q6J288); experiment: Solid-phase assay of 35S-labeled Acanthamoeba binding to Man-BSA coated wells; design: species or system Acanthamoeba strain MEEI 0184 (A. castellani); details: for Inhibition of Acanthamoeba binding to Man-BSA: at 100 mM; for Inhibition of amoebic binding to Man-BSA / affinity of amoebic lectin: no concentration stated
Sequence of mannose binding protein (MBP) of Acanthamoeba (Q6J288 entry or part of it): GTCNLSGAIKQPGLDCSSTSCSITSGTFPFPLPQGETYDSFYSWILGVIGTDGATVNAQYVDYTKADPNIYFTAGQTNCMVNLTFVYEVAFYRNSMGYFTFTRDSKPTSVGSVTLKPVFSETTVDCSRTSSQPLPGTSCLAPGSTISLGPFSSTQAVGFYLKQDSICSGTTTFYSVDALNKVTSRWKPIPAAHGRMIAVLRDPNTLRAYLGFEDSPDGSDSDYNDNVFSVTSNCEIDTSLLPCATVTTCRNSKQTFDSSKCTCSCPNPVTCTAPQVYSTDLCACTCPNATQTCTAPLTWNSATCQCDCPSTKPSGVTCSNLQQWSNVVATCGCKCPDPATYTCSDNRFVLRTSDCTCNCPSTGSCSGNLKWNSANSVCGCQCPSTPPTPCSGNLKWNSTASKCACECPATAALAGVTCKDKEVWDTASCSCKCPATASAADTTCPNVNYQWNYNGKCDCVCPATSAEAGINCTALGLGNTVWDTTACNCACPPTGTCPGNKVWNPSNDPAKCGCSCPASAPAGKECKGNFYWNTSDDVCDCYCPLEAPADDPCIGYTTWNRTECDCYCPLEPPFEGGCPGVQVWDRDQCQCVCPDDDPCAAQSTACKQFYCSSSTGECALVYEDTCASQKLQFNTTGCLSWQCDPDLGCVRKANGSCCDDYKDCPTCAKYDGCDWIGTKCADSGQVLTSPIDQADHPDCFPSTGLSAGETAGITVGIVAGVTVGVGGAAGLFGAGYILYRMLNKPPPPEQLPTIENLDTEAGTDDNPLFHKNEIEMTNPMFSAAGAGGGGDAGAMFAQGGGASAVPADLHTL
From the text: The Acanthamoeba strain MEEI 0184 (A. castellani based on morphological characteristics) was derived from an infected human cornea and used throughout this study. ATCC strain 30868 should have similar properties. The parasites were axenically cultured in PYG medium. A solid-phase assay characterized the sugar binding properties of the mannose binding protein (MBP) of Acanthamoeba (Z. Yang et al., Infect. Immun. 65:439-445, 1997). Briefly, wells of microtiter plates were coated with bovine serum albumin-α-D-mannopyranosyl phenylisothiocyanate (Man-BSA, 15-25 moles of α-D-mannopyranoside/mole albumin, 0.03 μg/ml, 50μl/well in 0.1 M sodium carbonate buffer, pH 9.6, 4° C. overnight). Nonspecific binding was blocked with 1% BSA in phosphate buffered saline (PBS, 1 hour, room temperature). After adding a 50-μl aliquot of ^35 S-labeled Acanthamoeba (5×10^6 cells/ml in PBS; 1 to 2 cpm/parasite, >95% trophozoites) to each well, the plates were incubated for 2 hours at room temperature. After rinsing the cells with PBS to remove unbound Acanthamoeba, 0.1 ml of 2% sodium dodecyl sulfate (SDS) was added to each well, and the radioactivity in aliquots of solubilized material was determined in a scintillation counter.

Acanthamoeba [2] = experiment: Acanthamoeba-induced cytopathic effect (CPE) assay, immortalized corneal epithelial cultures; format: cell-based; details: for Inhibition of amoeba-induced CPE: no concentration stated; for inhibition at 50000 µM: at 50 mM; for inhibition at 310 µM: at 0.31 mM
Method: Corneal epithelial cells with extended life span were also produced.
(§1) To characterize the role of carbohydrate-mediated host-parasite interactions in the Acanthamoeba-induced cytotoxicity of host cells, in vitro cytopathic assays were performed using both primary and immortalized cultures of corneal epithelium as host cells. Immortalized cells were assayed as confluent cultures in 24-well plates, and primary cells were assayed as confluent cells in 35-mm dishes or 6-well plates.
(§2) The plates were incubated at 37° C. in a CO2 incubator and periodically examined under a phase-contrast microscope for the presence of cell-free plaques in the monolayer for up to 28-30 hours. Control wells contained host cells without the parasites. At the end of the incubation period, the cultures were stained with Giemsa (Diff-Quik, Dade Diagnostic Inc., Aguada, PR). Approximate cell density in each well was estimated by scanning the stained plates in a calibrated, computer-assisted Bio-Image Scanner (Millipore, Ann Arbor, Mich.). Cytopathic effect (CPE) was expressed as percentage of the optical density by the following formula: [formula]
The CPE assays were performed in the SFB media containing one or more saccharides to be tested.
After staining with Giemsa, percent cell loss in each well was calculated based on the optical density in each well.

Acanthamoeba [3] = experiment: Acanthamoeba-induced CPE assay, primary cultures of corneal epithelium; format: cell-based; details: primary cultures as target cells
Method: In vitro cytopathic assays were performed using cell cultures of corneal epithelium as target cells. Primary cell cultures of rabbit corneal epithelium were prepared according to published protocols (M. M. Jumblatt, Invest. Opthalmol. Visual Sci. 24:1139-43, 1983) using rabbit eyes from Pel-Freez Biologicals (N. Panjwani et al., Invest. Opthalmol. Visual Sci. 31:689-695, 1990) (Rogers, AK). Generally, seventy-five eyes were processed at a time. Primary cultures have limited life span and can only be passaged 2 to 3 times without significant alteration in cell morphology.
as §1
as §2, with “The parasites (>95% trophozoites) were rinsed three times in a serum-free Eagle's minimum essential medium supplemented with 0.4% bovine serum albumin (SFB) and aliquots of the parasite suspension (0.2×10^5 to 1×10^6 parasites/ml SFB medium, 300 μl/well for 24-well plates and 500 μl/well for 6-well plates or 35-mm dishes) were added to wells of confluent epithelial cultures which had been rinsed and preincubated in SFB medium for 2 hours. The” for “The”
Primary cultures were less susceptible to amoeba-induced CPE, requiring 1×10^6 parasites/ml to completely destroy the monolayer within 24 hours. This parasite concentration was five times higher than that required to produce the same effect when immortalized cultures were used as target host cells.

[4] = molecular target: proteinases P1, P2, P3, P4; experiment: Zymography with proteinase inhibitors, components P1-P4; format: biochemical, Acanthamoeba; details: inhibitor 1 mM
Method: (§3) To characterize the mechanism by which the mannose-mediated host-parasite interactions influence the amoeba-induced cytolysis and/or cytopathic effect, conditioned media obtained by incubating amoebae with primary cultures of corneal epithelium in the presence and absence of α-Man for 6 to 8 hours were analyzed by zymography. Media conditioned by only Acanthamoeba or only epithelial cells were also analyzed. Zymography was performed using separating gels containing 10% acrylamide and 2 mg/ml gelatin, essentially as described by D. E. Kleiner et al. (Anal Biochem. 218:325-329, 1994). Samples were diluted in the electrophoresis sample buffer (U. K. Laemmli, Nature 227:680-685, 1970) without mercaptoethanol and were applied to the gels. After electrophoresis, proteinases separated on the gels were renatured by incubating the gels in 2.5% Triton X-100 in 50 mM Tris-HCl, pH 7.5 to remove SDS. After incubating the gels for 18 hours in a developing buffer (50 mM Tris-HCl, pH 7.5 containing 10 mM CaCl2), the gels were stained with Coomassie brilliant blue. Areas of digestion were visualized as non-staining regions. In some experiments, samples were pre-treated with phenylmethylsulfonyl fluoride (PMSF, 1 mM), an inhibitor of […] for one hour prior to electrophoresis, or 1,10-phenanthroline (1 mM), an inhibitor of metalloproteinases, was added to the developing buffer.

proteinases E1, E2 = experiment: Zymography with proteinase inhibitors, media conditioned by epithelial cells alone; format: biochemical, rabbit; details: inhibitor 1 mM
Method: as §3

[5] = Acanthamoeba, in Oryctolagus cuniculus, read-out: Inhibition of cytopathic effect (% inhib. at indicated conc.)

SMILES	Inhibition of Acanthamoeba binding to Man-BSA [1]	Inhibition of amoebic binding to Man-BSA / affinity of amoebic lectin [1]	Inhibition of amoeba-induced cytopathic effect (Acanthamoeba [2]; at 100 mM)	Inhibition of amoeba-induced CPE (Acanthamoeba [2])	further results
CO[C@H]1O[C@H](CO)[C@H](O)[C@H](O)[C@H]1O [methyl-α-D-galactopyranoside]	did not inhibit	did not inhibit	did not inhibit	did not inhibit	Inhibition of amoeba-induced CPE (Acanthamoeba [3]): did not inhibit CPE
OCC1OC(OC2C(O)C(CO)OC(OCC3OC(OC4C(O)C(CO)OC(OCC5OC(O)C(O)C(O)C5O)C4O)C(O)C(O)C3O)C2O)C(O)C(O)C1O (stereo not drawn) [Man(α1-3)Man(α1-6)Man-(α1-3)Man(α1-6)Man]		potent inhibitors		potent inhibitors	Inhibition of amoeba-induced CPE (Acanthamoeba [3]): inhibited CPE
O=P(O)(O)OC[C@H]1OC(O)[C@@H](O)[C@@H](O)[C@@H]1O (stereo partly drawn) [D-mannose-6-phosphate]	did not inhibit; also recorded: No inhibition		did not inhibit		inhibition at 50000 µM (Acanthamoeba [2]; [5]): 30%
OC[C@H]1OC(O)[C@@H](O)[C@H](O)[C@@H]1O (stereo partly drawn) [D-altrose]	did not inhibit	not inhibitory			Inhibition of amoeba-induced cytopathic effect (Acanthamoeba [2]): did not inhibit
OC1OC[C@@H](O)[C@H](O)[C@@H]1O (stereo partly drawn) [D-lyxose]	did not inhibit	lack of inhibitory activity; also recorded: no affinity	did not inhibit		
C[C@@H]1O[C@@H](O)[C@@H](O)[C@H](O)[C@@H]1O [α-L-Fucose]		poor inhibitors; also recorded: weak inhibitor		poor inhibitors; also recorded: weak inhibitor	Inhibition of amoebic binding to Man-BSA / affinity of amoebic lectin ([1]; listed as α-fucose): weak inhibitors; inhibition at 100000 µM (Acanthamoeba [2]; Acanthamoeba, in Oryctolagus cuniculus, at 100 mM, read-out: Inhibition of cytopathic effect (% inhib. at indicated conc.)): 40%; Inhibition of amoeba-induced CPE (Acanthamoeba [3]): not inhibitory
OC[C@H]1O[C@H](O[C@H]2[C@H](O)[C@@H](CO)OC(O)[C@H]2O)[C@@H](O)[C@@H](O)[C@@H]1O (stereo partly drawn) [Man(α1-3)Man]					Relative inhibitory potency in binding to Man-BSA ([1]; comparator named in the value): three times more potent than the corresponding α-1-6 disaccharide; inhibition at 310 µM (Acanthamoeba [2]; [5]): 91%
OC[C@H]1OC(O)[C@@H](O)[C@@H](O)[C@@H]1O (stereo partly drawn) [D-mannose]					inhibition at 5000 µM (Acanthamoeba [2]; [5]): 50%
O=S(=O)(F)Cc1ccccc1 [PMSF, phenylmethylsulfonyl fluoride]					Susceptibility of component P1 (230 kD) to inhibitor [4]: susceptible; Susceptibility of component P2 (97 kD) to inhibitor [4]: susceptible; Susceptibility of component P3 (80 kD) to inhibitor [4]: resistant; Susceptibility of component P4 (55 kD) to inhibitor [4]: susceptible; Susceptibility of component E1 (93 kD) to inhibitor (proteinases E1, E2): resistant; Susceptibility of component E2 (63 kD) to inhibitor (proteinases E1, E2): resistant
CO[C@H]1O[C@H](CO)[C@@H](O)[C@H](O)[C@H]1O [Methyl-α-D-glucopyranoside]		poor inhibitors		poor inhibitors	inhibition at 100000 µM ([1]; read-out: Inhibition of binding, % at indicated conc.): 40%; inhibition at 50000 µM (Acanthamoeba [2]; [5]): 31%
CC(=O)N[C@H]1C(O)O[C@H](CO)[C@H](O)[C@@H]1O (stereo partly drawn) [N-acetyl-D-galactosamine]	did not inhibit		did not inhibit		
OC[C@H]1O[C@H](OC[C@H]2OC(O)[C@@H](O)[C@@H](O)[C@@H]2O)[C@@H](O)[C@@H](O)[C@@H]1O (stereo partly drawn) [Man(α1-6)Man]					inhibition at 310 µM (Acanthamoeba [2]; [5]): 80%
OCC1OC(OC2C(O)C(CO)OC(OCC3OC(O)C(O)C(O)C3O)C2O)C(O)C(O)C1O (stereo not drawn) [Man(α1-3)Man(α1-6)Man]		potent inhibitors		potent inhibitors	inhibition at 310 µM (Acanthamoeba [2]; [5]): 100%; Inhibition of amoeba-induced CPE (Acanthamoeba [3]): inhibited CPE
OC[C@@H]1OC(O)[C@H](O)[C@H](O)[C@H]1O (stereo partly drawn) [L-mannose]	did not inhibit				Inhibition of amoeba-induced cytopathic effect (Acanthamoeba [2]): did not inhibit
OC[C@H]1O[C@H](O)[C@@H](O)[C@@H](O)[C@H]1O [α-D-talose]	did not inhibit	not inhibitory	did not inhibit		
OC[C@H]1OC(O)[C@H](O)[C@@H](O)[C@@H]1O (some centres unmarked) [glucose]		weak inhibitor			
CC(=O)N[C@@H]1C(O)O[C@H](CO)[C@@H](O)[C@@H]1O (stereo partly drawn) [N-acetyl-D-mannosamine]	did not inhibit	did not inhibit	did not inhibit	did not inhibit	
CO[C@@H]1O[C@H](CO)[C@H](O)[C@H](O)[C@H]1O [methyl-β-D-galactopyranoside]	did not inhibit	did not inhibit	did not inhibit	did not inhibit	Inhibition of amoeba-induced CPE (Acanthamoeba [3]): did not inhibit CPE
CO[C@@H]1O[C@H](CO)[C@@H](O)[C@H](O)[C@H]1O [methyl-β-D-glucopyranoside]	did not inhibit		did not inhibit		
OC[C@@H](O)[C@@H](O)[C@H](O)[C@H](O)CO [D-mannitol]	did not inhibit	did not inhibit	did not inhibit	did not inhibit	
C[C@@H]1OC(O)[C@H](O)[C@H](O)[C@H]1O (stereo partly drawn) [L-rhamnose]	did not inhibit		did not inhibit		
